Key:
Type in all cases: physicochemical
[1] = Partitioning kinetics of membrane biomolecules in patterned two-phase coexistent supported lipid bilayers in a microfluidic channel (BPD); conditions: for K (eq) partition coefficient: concentration in raft phase over POPC-rich phase from fluorescence intensity after equilibrating 2 hrs; for partitioning between raft phase and POPC-rich phase at equilibrium: flow stopped, equilibrated for 2 hrs; for k+ (association rate constant): from POPC-rich phase (70/20/10 POPC/PSM/Chol) to raft phase, first order, initial slope of NR-α plot; for k− (dissociation rate constant): from raft phase to POPC-rich phase, reversed flow after 2 hrs equilibration; for K (=k+/k−) partition coefficient: ratio of association/dissociation kinetic parameters
Description: Preparation of patterned two-phase coexistent lipid bilayers in a microfluidic device. Supported lipid bilayers (SLBs) are commonly formed by the rupture and self-assembly of large unilamellar lipid vesicles in solution onto glass (Brian, A. A.; McConnell, H. M. Proc. Natl. Acad. Sci. USA 1984, 81, 6159; Johnson, J. M.; Ha, T.; Chu, S.; Boxer, S. G. Biophysical Journal 2002, 83, 3371) or other oxidized supports (Richter, R. P.; Borat, R.; Brisson, A. R. Langmuir 2006, 22, 3497), as illustrated in FIG. 17a. A bilayer is formed during laminar flow conditions instead of under stagnant incubation. Laminar flow is an advantage for patterning heterogeneous bilayers in microfluidic channels because reagents follow streamlines with minimal mixing (Kam, L.; Boxer, S. G. Journal of the American Chemical Society 2000, 122, 12901). Thus, lipid vesicles of different compositions can be sent through the channel on different streamlines and upon rupture will form contiguous, parallel bilayers of different compositions with stable interfaces, if the compositions are chosen so that they are phase stable.
Formation of contiguous patterned membrane and loading and transport of membrane-bound biomolecules. […] A contiguous lipid membrane is formed with POPC-rich phase (70/20/10 molar ratio of POPC/PSM/Chol), raft phase (60/40 molar ratio of PSM/Chol), and the membrane loaded with 1 mol % of Alexa-594 head-labeled GM1 and 1 mol % of head-labeled BODIPY-DHPE doped in the POPC-rich phase.
Partitioning kinetic measurements by monitoring species' concentrations in the raft phase with time. […] The partitioning assay was carried out in three stages: association stage, equilibrium stage, and dissociation stage (FIGS. 13a-c). The experimental procedure and analyses are somewhat analogous to the measurement of adsorption/desorption binding kinetics by surface plasmon resonance (SPR) (Wegner, G. J.; Wark, A. W.; Lee, H. J.; Codner, E.; Saeki, T.; Fang, S.; Corn, R. M. Analytical Chemistry 2004, 76, 5677), except here there is a 2-D planar geometry and observing association/dissociation kinetics of membrane-bound biomolecules to/from a lipid membrane phase along an interface. To obtain association kinetics from POPC-rich phase to raft phase, target species in the POPC-rich phase were brought to a pristine raft phase and the amount entering into the raft phase in the control volume was monitored with time (FIG. 13a, stage 1). After most of the species initially loaded in the channel entered into the main partitioning channel, the next step was to stop the convective flow and wait until the system equilibrated (FIG. 13a, stage 2). Equilibration was confirmed when the concentration profile no longer changed across the channel. Finally, to obtain dissociation kinetics, the net amount of species leaving the raft phase was monitored when the hydrodynamic flow was reversed and fresh POPC-rich phase membrane could be monitored for the re-association of molecules now moving from the raft phase back into the POPC-rich phase (FIG. 13a, stage 3). Three different molecules were tested: Alex594-head-labeled GM1, BODIPY-tail-labeled GM1, and head-labeled BODIPY-DHPE.
Theory of partitioning kinetic analyses. The association/dissociation kinetics of fluorescently-labeled species was analyzed into/from the raft phase using a mass-balance approach. A control volume used for the mass balance is illustrated in FIG. 14. The accumulation of species in the raft phase over time can be represented as:
Association kinetic analysis. To obtain the association kinetic information from the POPC-rich phase to the raft phase, the experiment was operated in such a way so that only the association term, r+, is important and the dissociation term and the convective flow rate terms can be neglected in Equation 1. At the beginning of the experiment, a hydrodynamic force was provided to move the species into the control volume (the white box in FIG. 14). […]

[2] = Lipid diffusion measurements by fluorescence recovery after photobleaching (FRAP) in supported lipid bilayers
Experimental: Lipid Diffusion Measurements. Diffusion coefficients of all biomolecule targets in each phase were determined by fluorescence recovery after photobleaching (FRAP). To measure the diffusion coefficient and mobile fraction of the biomolecule in a supported bilayer, liposomes of the same composition used in experiments were prepared with 0.1% of either BODIPY DHPE or GM1. 0.5 mg/ml liposomes were incubated in a PDMS well attached to a piranha cleaned slide. Lipid vesicles were allowed to incubate for 5 minutes, before being rinsed with buffer for one minute. In the case of the POPC-rich phase bilayer, the entire process is at room temperature. In the case of the raft phase bilayer, the prepared vesicle solutions were heated to 65° C. (a temperature above the miscibility transition temperature of the lipid mixture). The warm vesicle solutions were added to wells heated to 65° C. and were later rinsed with the buffer at 65° C. Following the formation of the raft phase bilayer, the heated sample was gently cooled down to room temperature prior measuring the diffusion coefficient.
To aid in focusing on the plane of the bilayer on the microscope, the bilayer was scratched with a dissection tool to remove a thin line of bilayer. Following the scratching step, the bilayer was rinsed again for one minute with buffer to remove any lipids in the bulk that were removed by scratching. A 20 μm diameter spot in the supported lipid bilayer was bleached with a laser for 200 ms. The recovery of the photobleached spot was recorded for 10 minutes for the POPC-rich phase sample and one hour for the raft phase sample. The fluorescence intensity of the bleached spot was determined after background subtraction and normalization for each image. The recovery data was fit using the method of Soumpasis (Zheng Y Z, Foster L J. Biochemical and Proteomic Approaches for the Study of Membrane Microdomains. Proteomics. 2009; 72:12-22). The diffusion coefficient, D, was then calculated using the following equation: D=w^2/4t1/2, where w is the full width at half-maximum of the Gaussian profile of the focused beam. The average diffusion coefficient and mobile fractions were determined from three separate samples of each sample and are listed in Table 2. These values are in line with numerous reports of lipid diffusion in supported bilayers.

[3] = Stamped patterned bilayers, electric field-induced migration and partitioning into raft regions; conditions: stamped raft regions in fluid phase bilayer, FIG. 3
Description: In one embodiment, the separation bilayer is patterned with multiple phases (raft and non-raft) that interact with species differentially to effect a separation analogous to a chromatographic separation strategy (FIG. 3). Here differently partitioning behavior serves to change the mobility of one species relative to the other such that they become separated. FIG. 3 illustrates how patterned bilayers of a BPD can be made and used for separation purposes. In one embodiment of the method for making a BPD, the steps can comprise: (A) Forming a bilayer via vesicle fusion of one composition, then (B) selectively remove by stamping regions where the second phase is desired. Back filling with the second vesicles (B). Stamping out a thin section of bilayer where a third vesicle formulation fuses; these vesicles contain the species to be separated (denoted by the mixture of light and dark circles arranged in a thin rectangle). An electric field can then be applied to induce the mixed charged species to migrate through the bilayer and partition as they sample the different regions of the bilayer. […] The GM1 is labeled with Alexa-594, which makes it, and the rafts in which they are located, appear bright.

[4] = Partitioning in the BPD on CTB binding; conditions: CTB binds to GM1
Description: βCD-mediated efflux is used to disrupt raft microdomains and stimulate a change in GM1 partitioning. Changes in partitioning of both GM1 and PLAP can also be induced by binding to CTB and/or antibodies (Kahya N, Brown D A, Schwille P. Raft Partitioning and Dynamic Behavior of Human Placental Alkaline Phosphatase in Giant Unilamellar Vesicles. Biochemistry. 2005; 44:7479-89). Antibody binding is known to cause several-fold enrichment in the raft phase of both targets and detection will be straightforward using fluorescence labels or conjugates.

[5] = POPC-rich phase (70/20/10 POPC/PSM/Chol)

Compound	K (eq) partition coefficient [1]	partitioning between raft phase and POPC-rich phase at equilibrium [1]	k+ (association rate constant) [1]	rate of the molecule to pass across the interface ([1]; from Table 1)	k− (dissociation rate constant) [1]	K (=k+/k−) partition coefficient [1]	Diffusion coefficient ([2]; POPC-rich phase)	Diffusion coefficient [2, 5]	Diffusion coefficient ([2]; Raft phase (60/40 PSM/Chol))	rate for a molecule to diffuse to the interface ([2]; diffusion coefficient/distance, 1 μm away in the POPC-rich phase, rough estimate)	Diffusion coefficient ([2]; raft phase)	diffusion rate from the interface into the middle of the raft patch ([2]; ~100 nm, raft phase, estimate)	partitioning into raft regions [3]	enrichment in the raft phase on CTB binding [4]
bovine brain asialoganglioside-GM1 labeled with Alexa Fluor® 594 hydrazide [Head-labeled GM1]	1.96	Most of GM1 partitions to the raft phase	1.53 ± 0.03 μm/min	~0.025 µm/s	0.85 ± 0.03 μm/min	1.8	0.77 μm^2/sec	0.77 μm^2/s	0.06 μm^2/s	0.77 μm/sec	0.06 μm^2/sec	0.6 μm/sec	preferential partitioning of GM1 lipids into raft regions	enrichment was observed
BODIPY®FL C5-ganglioside GM1 [Tail-labeled GM1]	0.75		0.64 ± 0.07 μm/min		0.72 ± 0.05 μm/min	0.89		0.82 μm^2/s	0.08 μm^2/s					
CCCCCCCCCCCCCCCC(=O)OC[C@H](COP(=O)(O)OCCNC(=O)CCc1ccc2n1[B-](F)(F)[N+]1=C(C)C=C(C)C1=C2)OC(=O)CCCCCCCCCCCCCCC.CCN(CC)CC [Head-labeled BODIPY-DHPE, N-(4,4-difluoro-5,7-dimethyl-4-bora-3a,4a-diaza-s-indacene-3-propionyl)-1,2-dihexadecanoyl-sn-glycero-3-phosphoethanolamine, triethylammonium salt]	0.6	most of BODIPY-DHPE remains in the POPC-rich phase	0.57 ± 0.08 μm/min		0.98 ± 0.04 μm/min	0.58		0.63 μm^2/s	0.05 μm^2/s				exclusion of BODIPY DHPE lipids from rafts regions	
